# Data reported in BindingDB's records for doi:10.1016/j.bmc.2013.08.025 (Novartis Institutes For Biomedical Research, 2013).
# pIC50: −log10 of the molar value.
# What was measured:
# [1] = Antagonist activity at CRTh2 receptor in human whole blood assessed as inhibition of PGD2-induced eosinophil shape change after 5 mins by flow cytometry
# [2] = Antagonist activity at CRTh2 receptor in human isolated eosinophil assessed as inhibition of eotaxin-induced shape change after 5 mins by flow cytometry
# [3] = Antagonist activity at CRTh2 receptor in human isolated eosinophil assessed as inhibition of delta12-PGD2-induced shape change after 5 mins by flow cytometry
# [4] = Antagonist activity at CRTh2 receptor in human isolated eosinophil assessed as inhibition of 11-Dehydro-TXB2-induced shape change after 5 mins by flow cytometry
# [5] = Antagonist activity at CRTh2 receptor in human isolated eosinophil assessed as inhibition of DK-PGD2-induced shape change after 5 mins by flow cytometry
# [6] = target: T1, Prostaglandin D2 receptor 2 (Homo sapiens, UniProt Q9Y5Y4); test: Antagonist activity at CRTh2 receptor in human isolated eosinophil assessed as inhibition of DK-PGD2-induced shape change after 5 mins by flow cytometry
# T1 sequence (Q9Y5Y4 whole entry): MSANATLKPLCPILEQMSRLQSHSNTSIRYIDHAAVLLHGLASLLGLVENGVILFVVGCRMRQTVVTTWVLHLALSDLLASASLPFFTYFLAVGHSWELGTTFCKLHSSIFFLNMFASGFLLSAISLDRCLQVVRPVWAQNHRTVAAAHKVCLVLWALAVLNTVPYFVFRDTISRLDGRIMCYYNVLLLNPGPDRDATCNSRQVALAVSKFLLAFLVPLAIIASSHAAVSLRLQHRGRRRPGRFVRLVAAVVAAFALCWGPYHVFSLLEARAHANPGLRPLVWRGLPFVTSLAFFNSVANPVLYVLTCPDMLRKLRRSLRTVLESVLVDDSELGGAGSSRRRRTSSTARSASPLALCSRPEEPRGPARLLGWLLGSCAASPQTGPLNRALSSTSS
smiles,measurement,setting,value
Cc1c(CC(=O)O)c2cccnc2n1Cc1ccc(S(C)(=O)=O)cc1,pIC50,[1],6.99
same,pIC50,[2],< 5.00
same,pIC50,[3],8.40
same,pIC50,[4],8.40
Cc1c(CC(=O)O)c2cccnc2n1Cc1ccc([S+](C)[O-])cc1 (configuration not stated),pIC50,[5],7.29
Cc1c(CC(=O)O)c2cccnc2n1Cc1ccc([N+](=O)[O-])cc1,pIC50,[6],7.62
Cc1c(CC(=O)O)c2cccnc2n1Cc1ccc(Cl)cc1,pIC50,[5],7.64
